Tested on: DRG axons
Assay: Axon degeneration assay: SARM1 inhibitor with DLK inhibitor, mouse DRG drop culture, manual axotomy
Format: cell-based
Details: 16 hours post-axotomy
Experimental: Mouse dorsal root ganglion neurons (DRGs) were dissected out of E12.5 CD1 mice (50 ganglia per embryo) and incubated with 0.5% Trypsin solution containing 0.02% EDTA (Gibco) at 37° C. for 15 min. The cells were then triturated by gentle pipetting and washed 3 times with DRG growth medium (Neurobasal medium (Gibco) containing 2% B27 (Invitrogen), 100 ng/ml 2.5S NGF (Harland Bioproducts), […] 5-fluoro-2′ deoxyuridine (Sigma), penicillin, and streptomycin). Cells were suspended in the DRG growth medium. DRG drop cultures were created by spotting 5000 cells/well into the center of each well of a 96-well tissue culture plate coated with poly-D-Lysine (0.1 mg/ml; Sigma) and laminin ([…]; Invitrogen). Cells were allowed to adhere to the plates in a humidified tissue culture incubator (5% CO2) for 15 min and then DRG growth medium was gently added ([…] well). DRG neurons were maintained in neurobasal medium supplemented with L-glutamine (Invitrogen), 2% (vol/vol) B27 (Invitrogen), 50 ng/mL NGF (Harlan Laboratories), and 1 μM 5-fluoro-2′deoxyuridine plus 1 μM uridine (Sigma) to induce death of mitotic cells. DRG neurons were then seeded on plates pre-coated with poly-D-lysine and laminin.
2 hours prior to axotomy, DRG cultures were treated with SARM1 inhibitors, in the continued presence of the DLK inhibitor. […] Isoquinoline SARM1 inhibitors tested included I-26 and I-86, while isothiazole SARM1 inhibitors tested included II-6 and II-32. The SARM1 inhibitors were tested using concentrations ranging from 0.1 to 30 μM.
A manual axotomy was performed at time 0 by transecting the axons of the DRG neurons with a blade. After the axotomy, DRG cultures remained exposed to the SARM1 inhibitor alone, DLK inhibitor alone, or the combination of SARM1 inhibitor and DLK inhibitor. At 16 hours, DRG cultures were fixed in a buffered solution containing 1% PFA and sucrose and stored at 4° C. prior to imaging. Bright-field images of DRG axons and cell bodies were collected using the 20× water immersion lens of a Phenix automated confocal microscope (PerkinElmer) and quantitation of axonal damage was performed using in-house developed scripts (Acapella, PerkinElmer). The effect of DLK inhibitor alone in protecting distal axons from fragmentation was determined at concentrations of 100 nM and 300 nM. The effect of combining the DLK inhibitor with varying concentrations of a SARM1 inhibitor was compared to the individual protective effects of either 100 nM or 300 nM of DLK inhibitor alone or an equivalent concentration of a SARM1 inhibitor alone.

[1] = SARM1 inhibitor alone, 1.1 μM, FIG. 1B/2B

SMILES: COc1cc(Br)c2ccncc2c1 [I-86]
- axonal protection (degeneration index of DRG axons) [1]: modest level of axonal protection
- axonal protection (degeneration index of DRG axons) (SARM1 inhibitor alone, 1.1 μM, FIG. 2A): a small, but statistically significant amount of axonal protection

SMILES: COCCn1sc(Nc2ccccc2C(F)(F)F)c(C#N)c1=O [II-32]
- axonal protection (degeneration index of DRG axons) (SARM1 inhibitor alone, 0.11, 0.33 or 1.1 μM, FIG. 4A): modest but not statistically significant axonal protection
- axonal protection (degeneration index of DRG axons) (SARM1 inhibitor alone, 0.11, 0.33 or 1.1 μM, FIG. 4B): only slight and not statistically significant protection

SMILES: Ic1cccc2cnccc12 [I-26]
- axonal protection (degeneration index of DRG axons) [1]: modest level of protection
- axonal protection (degeneration index of DRG axons) (SARM1 inhibitor alone, 1.1, 3.3, 10 or 30 μM (all tested concentrations), FIG. 1A): significant axonal protection over all tested concentrations

SMILES: N#Cc1c(O)nsc1Nc1ccccc1C(F)(F)F [II-6]
- axonal protection (degeneration index of DRG axons) (SARM1 inhibitor alone, 3.3 μM, FIG. 3B): modest level of protection
- axonal protection (degeneration index of DRG axons) (SARM1 inhibitor alone, 1.1 or 3.3 μM, FIG. 3A): modest, but statistically significant axonal protection

SMILES: N#Cc1ccnc(Nc2cc(C3CCN(C4COC4)CC3)cc(N3CCC(F)(F)C3)n2)c1 [DLK inhibitor, 2-((6-(3,3-difluoropyrrolidin-1-yl)-4-(1-(oxetan-3-yl)piperidin-4-yl)pyridin-2-yl)amino)isonicotinonitrile, reference compound]
- axonal protection (degeneration index of DRG axons) (100 nM DLK inhibitor alone): no axonal protection
- axonal protection (degeneration index of DRG axons) (300 nM DLK inhibitor alone): modest but statistically significant level of axonal protection

From US12083114B2, “Inhibitors of SARM1 in combination with neuro-protective agents” (Disarm Therapeutics, Inc., priority 2018, dated 2024)
